From patent US10980727B2, “Mixtures containing (E)-3-benzo[1,3]dioxol-5-yl-N,N-diphenyl-2-propenamide” (SYMRISE AG, priority 2016, dated 2021)

Legend:
Type in all cases: physicochemical
[1] = Solubility of BDDPA in different solvents at room temperature
Method: The solubility of (E)-3-benzo[1,3]dioxol-5-yl-N,N-diphenyl-2-propenamide (BDDPA) in different solvents was tested.
(§1) The amount of solvent added to the amount of (E)-3-benzo[1,3]dioxol-5-yl-N,N-diphenyl-2-propenamide is added up to 100 wt.-% in each mixture (1 to 18). Thus the composition of mixture 1 is 99 wt.-% ethanol, 1 wt.-% BDDPA.

[2] = Stability of the mixtures on storage at 5° C.; conditions: mixtures of table 2
Method: Several of the mixtures of example 1 were stored at night at 5 C to observe the stability.
as §1

[3] = Solubility of BDDPA in binary and ternary solvent systems at 23° C. and 90° C.
Method: The solubility of (E)-3-benzo[1,3]dioxol-5-yl-N,N-diphenyl-2-propenamide (BDDPA) in different solvent combinations was tested.
The amount of solvents 1 to 3 add up to 100 wt.-% with the amount of (E)-3-benzo[1,3]dioxol-5-yl-N,N-diphenyl-2-propenamide. Thus the composition of mixture 19 is 5 wt.-% BDDPA, 47.5 wt.-% triacetin and 47.5 wt.-% peppermint oil.

Structure (SMILES): O=C(/C=C/c1ccc2c(c1)OCO2)N(c1ccccc1)c1ccccc1 [BDDPA, (E)-3-benzo[1,3]dioxol-5-yl-N,N-diphenyl-2-propenamide]
- BDDPA dissolved in the respective solvents at room temperature ([1]; 23° C., solvents of table 1): completely dissolved
- Temperature at which BDDPA dissolves in the solvents of table 1 ([1]; where necessary by means of ultrasonification): ≤ 65 °C
- Recrystallization on storage over night below room temperature [2]: no recrystallization occurs
- BDDPA dissolved in binary and ternary solvent combinations at room temperature ([3]; 23° C.): completely dissolved
- BDDPA dissolved in binary and ternary solvent combinations at high temperature ([3]; 90° C.): remains stably dissolved
